Values quoted from earlier work in PubChem BioAssay AID1259409 (Chemical Carcinogenesis Research Information System (CCRIS), 2018).

Test system: rodent chemically induced tumor inhibition, incidence and multiplicity
Experiment: CCRIS tumor inhibitor studies

## S=C=NCCCCCCCCCCc1ccccc1
Carcinogen: 4-(METHYLNITROSAMINO)-1-(3-PYRIDYL)-1-BUTANONE, 64091-91-4, Dose [Inhibitor]: 0, 0.04 UMOL ONCE 2 HR PRIOR TO CARCINOGEN DOSE (STUDY DURATION: 16 WK), Route [Inhibitor]: GAVAGE, Species: MOUSE, Strain/Sex: STRAIN-A/FEMALE, Target Tissue: Type of Lesion: LUNG: ADENOMA, Dose [Carcinogen]: 10 UMOL IN 0.1 ML SALINE ONCE, Promoter: NONE USED
  tumour outcome (control, treated, inhibition, significance): 100%, 100%, 0%, not significant
Carcinogen: 4-(METHYLNITROSAMINO)-1-(3-PYRIDYL)-1-BUTANONE, 64091-91-4, Dose [Inhibitor]: 0, 0.1 UMOL ONCE 2 HR PRIOR TO CARCINOGEN DOSE (STUDY DURATION: 16 WK), Route [Inhibitor]: GAVAGE, Species: MOUSE, Strain/Sex: STRAIN-A/FEMALE, Target Tissue: Type of Lesion: LUNG: ADENOMA, Dose [Carcinogen]: 10 UMOL IN 0.1 ML SALINE ONCE, Promoter: NONE USED
  tumour outcome (control, treated, inhibition, significance): 100%, 100%, 0%, not significant
Carcinogen: 4-(METHYLNITROSAMINO)-1-(3-PYRIDYL)-1-BUTANONE, 64091-91-4, Dose [Inhibitor]: 0, 0.2 UMOL ONCE 2 HR PRIOR TO CARCINOGEN DOSE (STUDY DURATION: 16 WK), Route [Inhibitor]: GAVAGE, Species: MOUSE, Strain/Sex: STRAIN-A/FEMALE, Target Tissue: Type of Lesion: LUNG: ADENOMA, Dose [Carcinogen]: 10 UMOL IN 0.1 ML SALINE ONCE, Promoter: NONE USED
  tumour outcome (control, treated, inhibition, significance): 100%, 70%, 30%, p<0.05

## CC(=O)/C=C/C1=C(C)CCCC1(C)C
Carcinogen: 7,12-DIMETHYLBENZ[A]ANTHRACENE, 57-97-6, Dose [Inhibitor]: 0, 36 MMOL/KG IN DIET FOR 24 WK BEGINNING 2 WK PRIOR TO CARCINOGEN DOSE (STUDY DURATION: 24 WK), Route [Inhibitor]: ORAL, Species: RAT, Strain/Sex: SPRAGUE-DAWLEY/FEMALE, Target Tissue: Type of Lesion: MAMMARY GLAND: TUMOR, Dose [Carcinogen]: 65 MG/KG BW ONCE, Promoter: NONE USED
  tumour outcome (control, treated, inhibition, significance): 91%, 41%, 55%, not calculated
Dose [Inhibitor]: 0, 1000 PPM IN DIET BEGINNING 8 WK PRIOR TO CARCINOGEN AND CONTINUING FOR 6 WK POST CARCINOGEN (STUDY DURATION: 68 WK), Route [Inhibitor]: ORAL, Species: FISH, Strain/Sex: RAINBOW TROUT, Target Tissue: Type of Lesion: LIVER: HEPATOCELLULAR CARCINOMA, Dose [Carcinogen]: 20 PPB IN DIET FOR 2 WK, Promoter: NONE USED
  tumour outcome (control, treated, inhibition, significance): 43/118 (36%), 38/118 (32%), 11%, not significant

## CC[C@H](CC[C@@H](C)[C@H]1CC[C@H]2[C@@H]3CC=C4C[C@@H](O)CC[C@]4(C)[C@H]3CC[C@]12C)C(C)C
Carcinogen: 7,12-DIMETHYLBENZ[A]ANTHRACENE, 57-97-6, Dose [Inhibitor]: 0, 5 UMOL 2/WK BEGINNING 1 WK POST CARCINOGEN TREATMENT AND CONTINUING FOR 18 WK (STUDY DURATION: 19 WK), Route [Inhibitor]: DERMAL, Species: MOUSE, Strain/Sex: ICR/FEMALE, Target Tissue: Type of Lesion: SKIN: PAPILLOMA, Dose [Carcinogen]: 50 UG ONCE, Promoter: 12-O-TETRADECANOYLPHORBOL-13-ACETATE, 16561-29-8
  tumour outcome (control, treated, inhibition, significance): 100%, 80%, 20%, not calculated
Carcinogen: AZOXYMETHANE, 25843-45-2, Dose [Inhibitor]: 2 G/KG DIET DAILY FOR 26 WK STARTING SIMULTANEOUSLY WITH CARCINOGEN TREATMENT (STUDY DURATION: 26 WK), Route [Inhibitor]: ORAL, Species: RAT, Strain/Sex: SPRAGUE-DAWLEY/MALE, Target Tissue: Type of Lesion: LARGE INTESTINE: MALIGNANT TUMOR, Dose [Carcinogen]: 8 MG/KG BW INJECTED 1/WK FOR 8 WK, Promoter: NONE USED
  tumour outcome (control, treated, inhibition, significance): 90%, 93%, -3%, not significant
Carcinogen: AZOXYMETHANE, 25843-45-2, Dose [Inhibitor]: 2 G/KG DIET DAILY FOR 26 WK STARTING SIMULTANEOUSLY WITH CARCINOGEN TREATMENT (STUDY DURATION: 26 WK), Route [Inhibitor]: ORAL, Species: RAT, Strain/Sex: SPRAGUE-DAWLEY/MALE, Target Tissue: Type of Lesion: SMALL INTESTINE: MALIGNANT TUMOR, Dose [Carcinogen]: 8 MG/KG BW INJECTED 1/WK FOR 8 WK, Promoter: NONE USED
  tumour outcome (control, treated, inhibition, significance): 90%, 96%, -7%, not significant
Carcinogen: AZOXYMETHANE, 25843-45-2, Dose [Inhibitor]: 2 G/KG DIET DAILY STARTING SIMULTANEOUSLY WITH CARCINOGEN TREATMENT AND CONTINUING THROUGH END OF STUDY (STUDY DURATION:, Route [Inhibitor]: ORAL, Species: RAT, Strain/Sex: SPRAGUE-DAWLEY/MALE, Target Tissue: Type of Lesion: LARGE INTESTINE: MALIGNANT TUMOR, Dose [Carcinogen]: 8 MG/KG BW 1/WK FOR 8 WK, Promoter: NONE USED
  tumour outcome (control, treated, inhibition, significance): 90%, 93%, -3%, not significant
Carcinogen: AZOXYMETHANE, 25843-45-2, Dose [Inhibitor]: 2 G/KG DIET DAILY STARTING SIMULTANEOUSLY WITH CARCINOGEN TREATMENT AND CONTINUING THROUGH END OF STUDY (STUDY DURATION:, Route [Inhibitor]: ORAL, Species: RAT, Strain/Sex: SPRAGUE-DAWLEY/MALE, Target Tissue: Type of Lesion: SMALL INTESTINE: MALIGNANT TUMOR, Dose [Carcinogen]: 8 MG/KG BW 1/WK FOR 8 WK, Promoter: NONE USED
  tumour outcome (control, treated, inhibition, significance): 90%, 96%, -7%, not significant
Carcinogen: N-METHYL-N-NITROSOUREA, 684-93-5, Dose [Inhibitor]: 0.2% IN DIET DAILY FOR 28 WK STARTING SIMULTANEOUSLY WITH CARCINOGEN TREATMENT AND CONTINUING FOR DURATION OF STUDY (STU, Route [Inhibitor]: ORAL, Species: RAT, Strain/Sex: FISCHER CD/MALE, Target Tissue: Type of Lesion: COLON: ADENOMA, Dose [Carcinogen]: 2 MG IN 0.5 ML OF 0.9% NACL SOLUTION 1/3 D FOR 10 D, Promoter: NONE USED
  tumour outcome (control, treated, inhibition, significance): 38/71 (54%), 16/48 (33%), 39%, p<0.05
